Measured values published in patent publication US20160151410A1, “CLEARANCE OF BIOACTIVE LIPIDS FROM MEMBRANE STRUCTURES BY CYCLODEXTRINS” (The Trustees of Columbia University in the City of New York, priority 2013, published 2016).
Entries after “also recorded” stand apart in the source; their conditions may differ.

Legend:
ARPE-19 cells = format: cell-based
Method: (A, B) 40-50% confluent ARPE-19 cells in 96-well plate were cultured with serum-free medium for 24 hours, then incubated with 0.1 ml of serum-free medium containing 0-100 μM 1-Palmitoyl-sn-glycero-3-phosphocholine (LPC) for 22 hours. Cell morphology of control cells and 100 μM LPC treated cells was observed under a microscope, as shown in (B). The cells were then incubated with 0.15 ml of serum-free medium containing 0.5 mg/ml MTT at 37° C. for 2 hours. Formation of formazan is detected at 540 nm with 0.1 ml of DMSO as solvent (A). (C) As performed in (A), but with 100 μM LPC pre-incubated for 1 hour with 0-20 mM HPαCD, significant protection of HPαCD on ARPE-19 cells was observed when used at 0.5 mM or greater in medium (marked with *).
Human retinal pigment epithelial cell line, ARPE-19, was purchased from ATCC (Manassas, Va.). The cells were cultured in Dulbecco's modified Eagle's medium supplemented with 10% of heat-inactivated fetal bovine serum (FBS), 100 IU/ml of penicillin, and […] of streptomycin (all cell culture products from Invitrogen-Gibco, Rockville, Md.). Cells were maintained at 37° C. in a 5% CO2 incubator with medium change every 3-4 days. […]
Cell viability was determined with the colorimetric MTT metabolic activity assay. […] After removal of cell culture medium, formation of formazan from MTT reduction was detected at 540 nm with 0.1 ml of DMSO as solvent.

[1] = test system: rabbit cornea after alkali burn; test: Rabbit corneal neovascularization by alkali burn; format: in vivo
Method: Alkali burn on central cornea was performed with 6 mm filter paper disc wetted with 8 μl of 1M NaOH. Cornea were then extensively washed with PBS, followed by treatment with control formula (left eye) and cyclodextrin formula (right eye) as described in Materials and Methods. The bottom two pictures are fluorescein angiograms showing the leaking new vessels in the cornea. White arrows in pictures show corneal neovascularization.
3 New Zealand white rabbits, aged 4-5 months and weighing 1.8-2.6 kg, were obtained from Charles River Laboratories (Wilmington, Mass.) and acclimatized for several weeks before the experiments started. All of the rabbits were anesthetized using ketamine (42 mg/kg) and xylazine (7 mg/kg) intramuscularly. 0.5% proparacaine hydrochloride (Akorn, Inc. Lake Forest, Ill.) was applied topically. Alkali burn on central cornea of both eyes was performed with 6 mm round disc of Whatman No. 1 filter paper wetted with […] of 1M NaOH for exactly 1 minute, filter paper was then removed and the cornea was extensively irrigated with 200 ml of PBS for 10 minutes. Left eye and right eye were then treated with control formula (6 mg/ml of POPC liposome in PBS) and cyclodextrin formula (50 mM HPαCD and 16.7 mM HPβCD in control formula), respectively. […]

[2] = test system: lysophospholipids from LIPC-digested human LDL; test: Extraction of lysophospholipids from LIPC-digested LDL by cyclodextrins, read out as complement C3 fixation; format: biochemical; settings: for complement activation after cyclodextrin extraction of LIPC-digested LDL: 20 mM cyclodextrin
Method: Immobilized LDL was digested with LIPC, then 20 mM of different cyclodextrins (A), or 0-20 mM HPαCD (B), or 20 mM HPαCD (C), or 2 mM of HPαCD in combination with 0.5 mg/ml of native LDL (D) are used for 20 hours extraction (A, B, D), or 0-20 hours extraction (C). Complement activation with diluted native human serum was then performed. MβCD—methyl-β-cyclodextrin; HPβCD—hydroxypropyl-β-cyclodextrin.
(§1) 96-well NUNC MaxiSorp plates were coated with 40 μl of human LDL, VLDL, or NaOH-hydrolyzed LDL, all at 200 μg/ml in PBS, at 4° C. overnight then 37° C. for 1 hour, and remaining binding sites were blocked with 3% BSA in PBS at 37° C. for 1 hour. The wells were washed and then incubated with 40 μl of LIPC or CEase in PBS containing 2% BSA at 37° C. for 1 or 2 hours as indicated in Results section, and the degradation reaction was stopped by washing the plate with PBS. For complement system activation, the resulted plate was incubated with 20 μl of 1:1 diluted human sera at 21° C. for 30 minutes. The diluent for serum dilution was PBS containing calcium and magnesium, and human sera that were utilized in our study were native serum, C1q-depleted serum, factor B-depleted serum, native serum with addition of 10 mM of MgCl2 and 20 mM EGTA (Mg-EGTA), and native serum with addition of 10 mM EDTA.
After thorough washing of the plate, C3 fixation and final membrane attack complex formation on the plate were determined with anti-human C3d antibody and anti-human C5b-9 antibody, in combination with HRP-conjugated secondary antibody, respectively. The monoclonal anti-human C3d antibody is reactive to all C3d-containing fragments of C3, but not with C3 itself, so it detects C3 fixation on the plate and not C3 absorption. The final peroxidase activity was monitored at 450 nm with 3,3′,5,5′-tetramethyl-benzidine and hydrogen peroxide as substrates after 10 or 15 minutes reaction at room temperature.
We tested several cyclodextrins for the ability to extract lysophospholipids from LIPC-digested human LDL. Since lysophospholipid level in lipoprotein is directly related to complement C3 fixation, we use C3 fixation as an indicative parameter for levels of lysophospholipids in lipoprotein. […] We also tested HPαCD upon shuttling of lysophospholipids between LIPC-digested LDL and native LDL, a biological feature of lipid transport (FIG. 4D).

[3] = test system: classical pathway of complement system; test: Complement activation (C3 fixation) by LIPC- or CEase-digested immobilized LDL with human serum; format: biochemical
Method: 96-well MaxiSorp plates were coated with fresh human LDL (A, D, E), VLDL (B), or NaOH-hydrolyzed LDL (C). After blocking with BSA, the plates, except (C), were digested with LIPC. To test complement activation, the plates were incubated with diluted native human serum (N), C1q-depleted human serum (Cd), factor B-depleted human serum (Bd), or human serum containing Mg-EGTA (ME). C3 fixation on the plate was detected with a monoclonal anti-C3d antibody followed by HRP-conjugated secondary antibody. Specific conditions for LIPC digestion and HRP-catalyzed color development of each experiment were outlined as following: LIPC was used at 10 μg/ml for (A, B, E), 0-50 μg/ml for (D), and no LIPC for (C). LIPC degradation was 1 hour for (D), 2 hours for (A, B), and 0-2 hours for (E). Color development was 15 minutes for (A, B, C, E) and 10 minutes for (D). For NaOH hydrolysis of LDL, 1.35 mg/ml of LDL was incubated in 0.15M NaOH solution at 25° C. for up to 60 minutes. Aliquots were taken out and neutralized with 0.15M HCl at 1, 10, 20, 60 minutes.
LIPC and CEase, both having 8 μUnits of phospholipase A1 activity but having 3 μUnits and 8125 μUnits of triglyceride hydrolase activity respectively, were used for 2 hours digestion of immobilized LDL. Complement activation with diluted native human serum is then determined as in FIG. 1. The HRP-catalyzed color development was 15 minutes.
Human LDL coating and 1 hour (C) or 2 hours (A, B) LIPC digestion was performed as described in FIG. 1. (A) For complement activation, 0-50 μM of phosphocholine was added into diluted native human serum. […]
(§2) After thorough washing of the plate, C3 fixation and final membrane attack complex formation on the plate were determined with anti-human C3d antibody and anti-human C5b-9 antibody, in combination with HRP-conjugated secondary antibody, respectively. […] The final peroxidase activity was monitored at 450 nm with 3,3′,5,5′-tetramethyl-benzidine and hydrogen peroxide as substrates after 10 or 15 minutes reaction at room temperature.

C5b-9 = test: Terminal complement complex (C5b-9) formation by LIPC-digested LDL; format: biochemical; settings: human serum with additional CRP
Method: Immobilized LDL was digested by LIPC and then incubated with human serum with or without additional CRP. C3 fixation (A) and C5b-9 formation (B) was determined by specific primary and HRP-conjugated secondary antibodies.
as §1, with “The diluent for serum dilution was PBS containing calcium and magnesium, and human sera that were utilized in our study were native serum, C1q-depleted serum, factor B-depleted serum, native serum with addition of 10 mM of MgCl2 and 20 mM EGTA (Mg-EGTA), and native serum with addition of 10 mM EDTA.” left out
as §2

2-hydroxypropyl-α-cyclodextrin [HPαCD]
HPαCD concentration giving significant protection of ARPE-19 cells (ARPE-19 cells; 100 μM LPC pre-incubated 1 hour with 0-20 mM HPαCD): ≥ 0.5 mM | neovascularization area and vessel length ([1]; FIG. 7 representative result): reduced dramatically | inhibition of corneal neovascularization ([1]; topical after alkali burn, right eye vs control formula left eye, three rabbits): dramatic effect of HPαCD extraction on inhibition of corneal neovascularization | extraction of complement-activating lysophospholipids, dose and time dependence ([2]; 0-20 mM HPαCD for 20 hours, 20 mM HPαCD for 0-20 hours): dose- and time-dependent | extraction of lysophospholipids, HPαCD alone at low level ([2]; 2 mM HPαCD alone, 20 hours extraction): cannot extract much lysophospholipids | extraction of lysophospholipids, HPαCD in combination with native LDL ([2]; 2 mM HPαCD with 0.5 mg/ml native LDL, 20 hours extraction): extract the most lysophospholipids | complement activation after cyclodextrin extraction of LIPC-digested LDL ([2]; 20 hours extraction): significantly less complement activation; also recorded: Significant extraction of lysophospholipids

2-hydroxypropyl-β-cyclodextrin [reference compound]
complement activation after cyclodextrin extraction of LIPC-digested LDL ([2]; 20 hours extraction): much weaker effects

CCCCCCCCCCCCCCCC(=O)OC[C@@H](O)COP(=O)([O-])OCC[N+](C)(C)C [1-palmitoyl-sn-glycero-3-phosphocholine, reference compound]
concentration inducing ARPE-19 cell death (ARPE-19 cells; serum-free medium, 22 hours, 0-100 μM tested): ≥ 20 μM

C[N+](C)(C)CCOP(=O)([O-])O [phosphocholine, reference compound]
complement activation by LIPC-digested LDL, phosphocholine added into serum ([3]; 0-50 μM phosphocholine in diluted native human serum): significantly decreases complement activation

OC[C@H]1O[C@@H]2O[C@H]3[C@H](O)[C@@H](O)[C@@H](O[C@H]4[C@H](O)[C@@H](O)[C@@H](O[C@H]5[C@H](O)[C@@H](O)[C@@H](O[C@H]6[C@H](O)[C@@H](O)[C@@H](O[C@H]7[C@H](O)[C@@H](O)[C@@H](O[C@H]1[C@H](O)[C@H]2O)O[C@@H]7CO)O[C@@H]6CO)O[C@@H]5CO)O[C@@H]4CO)O[C@@H]3CO [α-cyclodextrin, reference compound]
complement activation after cyclodextrin extraction of LIPC-digested LDL ([2]; 20 hours extraction): much weaker effects

OC[C@H]1O[C@@H]2O[C@H]3[C@H](O)[C@@H](O)[C@@H](O[C@H]4[C@H](O)[C@@H](O)[C@@H](O[C@H]5[C@H](O)[C@@H](O)[C@@H](O[C@H]6[C@H](O)[C@@H](O)[C@@H](O[C@H]7[C@H](O)[C@@H](O)[C@@H](O[C@H]8[C@H](O)[C@@H](O)[C@@H](O[C@H]1[C@H](O)[C@H]2O)O[C@@H]8CO)O[C@@H]7CO)O[C@@H]6CO)O[C@@H]5CO)O[C@@H]4CO)O[C@@H]3CO [β-cyclodextrin, reference compound]
complement activation after cyclodextrin extraction of LIPC-digested LDL ([2]; 20 hours extraction): much weaker effects

methyl-β-cyclodextrin [reference compound]
complement activation after cyclodextrin extraction of LIPC-digested LDL ([2]; 20 hours extraction): much weaker effects

B1: CRP: purified human CRP, binding protein of lysophosphatidylcholine (protein, UniProt P02741 19-224, looked up)
C-reactive protein: QTDMSRKAFVFPKESDTSYVSLKAPLTKPLKAFTVCLHFYTELSSTRGYSIFSYATKRQDNEILIFWSKDIGYSFTVGGSEILFEVPEVTVAPVHICTSWESASGIVEFWVDGKPRVRKSLKKGYTVGAEASIILGQEQDSFGGNFEGSQSLVGDIGNVNMWDFVLSPDEINTIYLGGPFSPNVLNWRALKYEVQGEVFTKPQLWP
C3 fixation by LIPC-digested LDL with additional CRP ([3]; native human serum supplemented with purified human CRP): dose-dependently enhances its activity on complement activation; also recorded: enhances C3 fixation | terminal complement complex formation with additional CRP (C5b-9): blocks the terminal complement complex formation
